Measurements from ChEMBL document CHEMBL2074417, “The bisbenzylisoquinoline alkaloids, tetrandine and fangchinoline, enhance the cytotoxicity of multidrug resistance-related drugs via modulation of P-glycoprotein” (Anticancer Drugs, 1998).

What was measured:
[1] = target: T1, ATP-dependent translocase ABCB1 (Homo sapiens, UniProt P08183); assay: TP_TRANSPORTER: increase in Rhodamine 123 intracellular accumulation (R123: 4 uM, Tetrandine: 3 uM) in HCT15 cells; format: functional, cell-based; conditions: hct-15, 3 µM
[2] = target: T1, ATP-dependent translocase ABCB1; assay: TP_TRANSPORTER: increase in Rhodamine 123 intracellular accumulation (R123: 4 uM, Fangchinoline: 3 uM) in HCT15 cells; format: functional, cell-based; conditions: hct-15, 3 µM

T1 sequence (P08183 whole entry): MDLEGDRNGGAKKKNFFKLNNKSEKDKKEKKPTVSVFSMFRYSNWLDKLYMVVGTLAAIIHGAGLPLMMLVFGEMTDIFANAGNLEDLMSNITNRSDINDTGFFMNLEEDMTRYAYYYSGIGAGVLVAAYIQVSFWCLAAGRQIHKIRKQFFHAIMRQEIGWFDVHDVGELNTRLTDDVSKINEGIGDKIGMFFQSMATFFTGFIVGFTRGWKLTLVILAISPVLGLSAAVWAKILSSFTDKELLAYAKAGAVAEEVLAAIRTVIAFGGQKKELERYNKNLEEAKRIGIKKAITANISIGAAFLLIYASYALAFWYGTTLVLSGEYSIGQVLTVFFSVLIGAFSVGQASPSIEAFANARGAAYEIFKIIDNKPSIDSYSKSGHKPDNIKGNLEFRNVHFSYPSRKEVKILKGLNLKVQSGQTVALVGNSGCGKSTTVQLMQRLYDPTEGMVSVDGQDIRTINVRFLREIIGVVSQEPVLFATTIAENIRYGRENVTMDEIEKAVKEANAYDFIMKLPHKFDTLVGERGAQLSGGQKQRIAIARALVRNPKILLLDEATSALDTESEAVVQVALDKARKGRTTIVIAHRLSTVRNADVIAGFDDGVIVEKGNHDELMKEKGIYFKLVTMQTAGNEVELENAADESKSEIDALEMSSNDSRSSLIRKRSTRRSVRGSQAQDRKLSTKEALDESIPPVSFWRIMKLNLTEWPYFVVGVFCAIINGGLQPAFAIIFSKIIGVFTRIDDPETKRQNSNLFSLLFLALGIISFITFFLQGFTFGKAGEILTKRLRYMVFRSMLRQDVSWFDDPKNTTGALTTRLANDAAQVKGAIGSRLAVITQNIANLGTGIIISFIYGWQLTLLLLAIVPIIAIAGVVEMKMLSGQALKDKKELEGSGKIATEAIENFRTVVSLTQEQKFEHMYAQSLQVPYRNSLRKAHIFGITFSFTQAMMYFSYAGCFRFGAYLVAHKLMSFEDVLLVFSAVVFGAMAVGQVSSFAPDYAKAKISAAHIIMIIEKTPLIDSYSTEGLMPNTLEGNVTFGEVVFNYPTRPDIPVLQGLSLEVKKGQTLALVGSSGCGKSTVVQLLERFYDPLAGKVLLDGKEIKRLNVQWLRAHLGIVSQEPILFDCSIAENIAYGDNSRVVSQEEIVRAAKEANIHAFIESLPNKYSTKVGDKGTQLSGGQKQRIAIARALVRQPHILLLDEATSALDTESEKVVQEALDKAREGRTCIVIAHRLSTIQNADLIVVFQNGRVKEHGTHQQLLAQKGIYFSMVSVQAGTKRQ

| Structure (SMILES) | Activity [1] | Activity [2] |
| --- | --- | --- |
| COc1ccc2cc1Oc1ccc(cc1)C[C@H]1c3cc(c(OC)cc3CCN1C)Oc1c(OC)c(OC)cc3c1[C@H](C2)N(C)CC3 [FANCHININ] | 2.5 fold |  |
| COc1ccc2cc1Oc1ccc(cc1)C[C@H]1c3cc(c(OC)cc3CCN1C)Oc1c(O)c(OC)cc3c1[C@H](C2)N(C)CC3 [FANGCHINOLINE] |  | 2.4 fold |
